The numbers were not newly measured in patent US8449906B2, “Effervescent compositions comprising phosphonates and methods related thereto” (EffRx Pharmaceuticals, S.A., priority 2002, dated 2013), which cites them from elsewhere.

In the case of `COc1ccc2[nH]c([S+]([O-])Cc3ncc(C)c(OC)c3C)nc2c1` (stereo not shown) [omeprazole], the pKa entry is “about 3.9”.
